According to patent US20060035927A1, “Calcilytic compounds” (SmithKline Beecham Corporation, priority 1999, published 2006):
pIC50: −log10 of the molar value. Counter-ions that a name gives are not always drawn.

Tests used:
osteopenic ovx rats [1] = assay: Ovariectomized rat Study 2: calcilytic plus/minus 17β estradiol, histology and histomorphometry of proximal tibia; assay type: in vivo; settings: Study 2, proximal tibia, static histomorphometry, vs ovx group
Experimental: Animals were prepared and monitored as described above. […] Dosing continued for 5 weeks at which point the animals were sacrificed and the tibiae were collected for histological analysis. Bone samples were dehydrated through increasing concentrations of ethanol, defatted in acetone and embedded in methyl methacrylate (Polysciences, Inc., Warrington, Pa.). Longitudinal undecalcified sections (5 μm) sections of the proximal tibial were cut on a Leica microtome (S[…]); the tissue blocks had been prestained with Villanueva stain. Histomorphometric analysis was carried out using an Osteomeasure system (OsteoMetrics Incorpotated), without knowledge of group allocation. Measurements within the tibial metaphysis were restricted to a mean tissue area of approximately 8 mm^2 beginning 1 mm below the growth plate. Primary measurements included area of bone and marrow (mm^2), bone area (mm^2), perimeter of bone (mm), single and double-labelled perimeter (sL.Pm, dL.Pm, m), osteoid perimeter (O.Pm, m) and eroded perimeter (Er.P, m). […] Statistical analysis was assessed by a two sided t-test.

plasma PTH = assay: Ovariectomized rat Study 1: circulating PTH levels (RIA); assay type: in vivo
Description: (§1) Seven month old virgin Sprague Dawley female rats were subjected to bilateral ovariectomy or sham surgery and the animals then held for a period of three months to allow the development of osteopenia. At that time a single sham group (n=10) and three groups of ovariectomized (ovx) animals (n=10-14) were assigned. The ovx groups were selected such that there was no significant difference in bone mineral density (“BMD”) of the lumbar spine, proximal tibia or distal femur between groups. Groups consisted of sham and ovx controls treated with dose vehicle (20% aqueous encapsin) and ovx groups treated with either N-[(2R-Hydroxy-3-[(3-chloro-2-cyano)phenoxy-propyl]-1,1-dimethyl-2-(2-naphthyl)ethyl amine hydrochloride (“calcilytic administered”) ([…] body weight daily p.o.) or rat PTH 1-34 (5 ug/kg body weight daily s.c.).
(§2) During the study blood samples were drawn for determination of circulating PTH and osteocalcin. BMD was determined by DXA (QDR4500 Hologic, Waltham, Mass.) prior to treatment and at weeks 4 and 8. At term tibiae were removed for histological analysis. All animals received tetracycline 10 and 3 days prior to the start of dosing and calcein (10 mg/kg) 10 and 3 days prior to sacrifice.
(§3) Timed plasma samples were collected relative to administration of compound or PTH. PTH 1-34 was measured by RIA (Nichols Institute Diagnostics, San Juan Capistrano, Calif.). The concentrations of compound in the plasma were quantified by LC/MS/MS (limit of detection 10 ng/ml).

[2] = system: human TF274 osteoblastic cells; assay: Osteoblast cAMP production, TF274 cells; assay type: cell-based; settings: compound 0.1, 1 and 10 uM
Experimental: (§4) cAMP accumulation was measured in both human TF274 osteoblastic cells (derived by immortalization of human bone marrow stromal cells) see James, supra, and primary human osteoblasts derived from explants of trabecular bone as described in Beresford, Biochim. Biophys. Acta, Vol. 801, pp. 58-65 ([…]). cAMP levels in cell samples were measured using a non-radioactive protocol (Amersham kit). Alkaline phosphatase activity was determined using the standard colorimetric method as described previously in Gowen, Arth. Rheum., Vol. 31, pp. 1500-1507 (1988). N-[(2R-Hydroxy-3-[(3-chloro-2-cyano)phenoxy-propyl]-1,1-dimethyl-2-(2-naphthyl)ethyl amine hydrochloride was tested at 0.1, 1 and 10 uM. PTH 40 ng/ml was used as a positive control.

osteopenic ovx rats [3] = assay: Ovariectomized rat Study 1: dynamic histomorphometry of proximal tibia; assay type: in vivo
Description: as §1, §2
Bone samples were dehydrated through increasing concentrations of ethanol, defatted in acetone and embedded in methyl methacrylate (Polysciences, Inc., Warrington, Pa.). Longitudinal undecalcified sections (5 μm) sections of the proximal tibial were cut on a Leica microtome (SM2500S); the tissue blocks had been prestained with Villanueva stain. Histomorphometric analysis was carried out using an Osteomeasure system (OsteoMetrics Incorpotated), without knowledge of group allocation. Measurements within the tibial metaphysis were restricted to a mean tissue area of approximately 8 mm^2 beginning 1 mm below the growth plate. Primary measurements included area of bone and marrow (mm^2), bone area (mm^2), perimeter of bone (mm), single and double-labelled perimeter (sL.Pm, dL.Pm, m), osteoid perimeter (O.Pm, m) and eroded perimeter (Er.P, m). Derived indices included trabecular bone volume (% Tb.Ar), trabecular number (Th.N, mm^−1), trabecular thickness (Th.Th, μm), trabecular separation (Th.Sp, μm), bone formation rate, surface referent (BFR/Tb.Pm, μm^3/μm^2/year), BFR/Tb.Ar (bone area referent, %/year), BFR/B.Ar (tissue referent, %/year) and mineral apposition rate (MAR, μm/day), and percent labelled perimeter (% Lp). Statistical analysis was assessed by a two sided t-test.

[4] = Ovariectomized rat Study 1: circulating compound levels (LC/MS/MS); assay type: in vivo; settings: Study 1, plasma, after oral administration
Description: as §1, §3

fetal rat long bone = assay: Fetal rat long bone resorption assay; assay type: cell-based; settings: 45Ca release, PTH-stimulated, 48 hours; read-out: IC50, inhibition of resorption in fetal rat long bone assay
Experimental: The assay was performed essentially as in Votta, Bone, Vol. 15, pp. 533-538, (1994). Timed-pregnant Sprague-Dawley rats (Taconic Farms, Germantown, N.Y.) were injected subcutaneously with 200 microcuries of ^45CaCl2 on day 18 of gestation, housed overnight, then anesthetized with Innovar-Vet (Pittman-Moore, Mundelein, Ill.) and sacrificed by cervical dislocation. The fetuses were removed aseptically and the radii and ulnae were dissected free of surrounding soft tissue and cartilagenous ends. The bone rudiments (n=4) were subsequently cultured for 18-24 hours in BGJb medium (Sigma, St. Louis, Mo.) containing 1 mg/ml BSA, then transferred to fresh medium and cultured for an additional 48 hours in the absence or presence of PTH (human parathyroid hormone, Bachem, Torrence, Calif.) and the desired inhibitor. ^45 Ca released into the medium and the residual ^45Ca in the bones (following solubilization in 5% TCA for 1 hour at room temperature) were quantitated by liquid scintillation spectrometry. Data are expressed as the percent ^45Ca released from treated bones as compared with corresponding control bones. Statistical differences were assessed by a one way analysis of variance (ANOVA). IC-50 values were based on data from two independent experiments.

osteopenic ovx rats [5] = assay: Ovariectomized rat Study 1: bone mineral density by DXA; assay type: in vivo; settings: Study 1, ovx rats, 100 mmol/kg body weight daily p.o., eight weeks of dosing
Description: as §1, §2

TF274 cells = assay: Osteoblast alkaline phosphatase activity; assay type: cell-based, human; settings: compound 0.1, 1 and 10 uM
Experimental: as §4

[6] = Study 1, proximal tibia, vs ovx control, calcilytic 100 mmol/kg p.o. or PTH 5 ug/kg s.c. daily

SMILES: CC(C)(Cc1ccc2ccccc2c1)NC[C@@H](O)COc1cccc(Cl)c1C#N [N-[(2R-Hydroxy-3-[(3-chloro-2-cyano)phenoxy-propyl]-1,1-dimethyl-2-(2-naphthyl)ethylamine hydrochloride]
- % trabecular area (% Tb.Ar.) / ovx-induced bone loss (osteopenic ovx rats [1]): no effect
- plasma PTH levels at four hours after administration (plasma PTH; Study 1, after calcilytic 100 mmol/kg p.o.): remained high
- plasma PTH levels (plasma PTH; Study 1, end of experiment, after calcilytic 100 mmol/kg p.o.): > 100 pg/mL
- plasma PTH levels after 24 hours (plasma PTH; Study 1, immediately prior to next dose of calcilytic): back to baseline
- PTH-induced cAMP levels ([2]; PTH 40 ng/ml): no effect
- cAMP levels (basal) ([2]; PTH 40 ng/ml positive control): no effect
- bone formation and resorption, net bone gain or loss (osteopenic ovx rats [3]; Study 1, overall outcome): dramatic increase in both bone formation and resorption, with no net bone gain or loss
- bone turnover, BFR/B.Ar. (osteopenic ovx rats [3]; Study 1, proximal tibia, compared with PTH and ovx control groups): dramatic increase
- bone resorption, % eroded perimeter (osteopenic ovx rats [3]; Study 1, proximal tibia, vs PTH or ovx control groups): significantly higher
- bone formation: % labeled perimeter (% L.Pm.) (osteopenic ovx rats [3]; [6]): elevated above the ovx control level
- bone formation: % osteoid perimeter (% Os.Pm) (osteopenic ovx rats [3]; [6]): elevated above the ovx control level
- sustained exposure to compound (circulating levels) [4]: elevated for up to eight hours
- pIC50 (fetal rat long bone): 4.95
- bone mass (BMD; lumbar spine, distal femur, proximal tibia) (osteopenic ovx rats [5]): unaffected
- alkaline phosphatase activity (TF274 cells): did not result in any change
- PTH-induced alkaline phosphatase (TF274 cells; PTH 40 ng/ml): nor was PTH-induced alkaline phosphatase affected
